Here are results for one compound from US20080125432A1 (Devgen NV, priority 2004, published 2008).

Assay [1] deals with Isus (Kv1.5 + additional channels). The assay can be described thus: Whole-cell patch clamp in human atrial myocytes: Isus. Type of assay: cell-based. As to conditions: n = 3 cells. The procedure:
(§1) The blocking profile of the compounds of the invention is determined on the following channels of the human atrial myocytes: INa, Ito, Isus and IK1 channel currents.
Human atrial myocytes: Myocytes were prepared from specimens with grossly normal anatomical aspect, excised from hearts of patients with normal P-wave electrocardiogram, undergoing bypass surgery. Human atrial sample were obtained following approval by the ethical committee. […]
(§2) Experiments were performed at room temperature (20-25° C.) for INa and at 32-34° C. for Ito, Isus, IK1. Currents were measured using the whole-cell variant of the patch clamp method. […]
After rupture of the cell membrane to enter the whole-cell mode, current amplitude and kinetics were allowed to stabilize for 3-7 min before initiating the experimental procedure. K^+ currents recorded from human atrial myocytes were elicited by a 500 ms pulse to +60 mV from a holding potential of −50 mV for Ito and Isus. Ito was measured as a peak current amplitude whereas Isus as a current present at the end of the 500 ms voltage pulse. In addition, the area under the curve, before and after compound, were measured over the course of the pulse period. […]
Background: The patch-clamp technique gives a direct electrical read-out from membranes.

Assay [2] concerns Male mice (NRMI). Kind of assay: In vivo telemetry ECG recording in mice, intraperitoneal application. Conditions: consecutive dosing i.p. (3-15 μM/kg), n=5. The procedure: Male mice (NRMI) were anesthetized with a gas mixture of isoflurane, nitrous oxide and oxigen. Leads connected to a telemetry transmitter (TA10EA-F20, DSI, St. Paul, USA) were fixed by suture in the xiphoid and ventral neck region. The telemetry transmitter was placed under the skin on the back. Wounds were closed in layers and the animals were allowed to recover for at least 1 week.
On the day of the experiment the animals receive consecutive doses of vehicle i.p. at 60 min dosing intervals. ECG tracings (12 s duration) was recorded using the Data Sciences A.R.T. system. After completion of the experiment ECGs were analyzed automatically by Data Sciences ECG software (DSI, St. Paul, USA). QT and QRS intervals were measured manually in the stored ECGs. QTc was calculated from the QT interval and the corresponding heart rate using Bazett's formula. Heart rate was taken from the online analysis, given by the DSI Labpro and DSI A.R.T. systems (DSI, St. Paul, USA). Finally, ECG intervals were transferred to an Excel spreadsheet, checked for plausibility, and converted into 15 min averages.

For assay [3], the target named is T1, INa (SCN5a) (Homo sapiens, UniProt Q14524).
T1 construct: endogenous in cells; host or cells: freshly isolated human atrial myocytes (bypass-surgery patients)
The assay can be described thus: Whole-cell patch clamp in human atrial myocytes: INa. The format is cell-based. Conditions: n = 3 cells. The procedure: as §1
Human atrial myocytes: Myocytes were prepared from specimens with grossly normal anatomical aspect, excised from hearts of patients with normal P-wave electrocardiogram, undergoing bypass surgery. Human atrial sample were obtained following approval by the ethical committee. Atrial tissue samples were quickly immersed in a cardioplegic solution (in mM: 50 KH2PO4, 8 MgSO4, 10 NaHCO3, 5 adenosine, 25 taurine, 140 glucose, and 100 mannitol, titrated to a pH of 7.4 and bubbled with 100% O2 at 0-4° C.) and rapidly delivered to the laboratory. The tissue was then minced onto 0.5-1 mm^2 chunks within 30 min after the excision procedure and transferred to a 50 ml conical tube containing wash solution deprived of Ca^2+ (in mM: 137 NaCl, KH2PO4, 1 MgSO4, 10 taurine, 10 glucose, 5 HEPES, and 100 μmol/L (µM) EGTA; pH=7.4, room temperature 22-24° C.). […]
as §2
Raw data and mean ±SEM are given. […] This is measured as current reduction after a steady-state effect has been reached in the presence of drug relative to current amplitude before drug was introduced (control). […]

T1 sequence (Q14524 whole entry): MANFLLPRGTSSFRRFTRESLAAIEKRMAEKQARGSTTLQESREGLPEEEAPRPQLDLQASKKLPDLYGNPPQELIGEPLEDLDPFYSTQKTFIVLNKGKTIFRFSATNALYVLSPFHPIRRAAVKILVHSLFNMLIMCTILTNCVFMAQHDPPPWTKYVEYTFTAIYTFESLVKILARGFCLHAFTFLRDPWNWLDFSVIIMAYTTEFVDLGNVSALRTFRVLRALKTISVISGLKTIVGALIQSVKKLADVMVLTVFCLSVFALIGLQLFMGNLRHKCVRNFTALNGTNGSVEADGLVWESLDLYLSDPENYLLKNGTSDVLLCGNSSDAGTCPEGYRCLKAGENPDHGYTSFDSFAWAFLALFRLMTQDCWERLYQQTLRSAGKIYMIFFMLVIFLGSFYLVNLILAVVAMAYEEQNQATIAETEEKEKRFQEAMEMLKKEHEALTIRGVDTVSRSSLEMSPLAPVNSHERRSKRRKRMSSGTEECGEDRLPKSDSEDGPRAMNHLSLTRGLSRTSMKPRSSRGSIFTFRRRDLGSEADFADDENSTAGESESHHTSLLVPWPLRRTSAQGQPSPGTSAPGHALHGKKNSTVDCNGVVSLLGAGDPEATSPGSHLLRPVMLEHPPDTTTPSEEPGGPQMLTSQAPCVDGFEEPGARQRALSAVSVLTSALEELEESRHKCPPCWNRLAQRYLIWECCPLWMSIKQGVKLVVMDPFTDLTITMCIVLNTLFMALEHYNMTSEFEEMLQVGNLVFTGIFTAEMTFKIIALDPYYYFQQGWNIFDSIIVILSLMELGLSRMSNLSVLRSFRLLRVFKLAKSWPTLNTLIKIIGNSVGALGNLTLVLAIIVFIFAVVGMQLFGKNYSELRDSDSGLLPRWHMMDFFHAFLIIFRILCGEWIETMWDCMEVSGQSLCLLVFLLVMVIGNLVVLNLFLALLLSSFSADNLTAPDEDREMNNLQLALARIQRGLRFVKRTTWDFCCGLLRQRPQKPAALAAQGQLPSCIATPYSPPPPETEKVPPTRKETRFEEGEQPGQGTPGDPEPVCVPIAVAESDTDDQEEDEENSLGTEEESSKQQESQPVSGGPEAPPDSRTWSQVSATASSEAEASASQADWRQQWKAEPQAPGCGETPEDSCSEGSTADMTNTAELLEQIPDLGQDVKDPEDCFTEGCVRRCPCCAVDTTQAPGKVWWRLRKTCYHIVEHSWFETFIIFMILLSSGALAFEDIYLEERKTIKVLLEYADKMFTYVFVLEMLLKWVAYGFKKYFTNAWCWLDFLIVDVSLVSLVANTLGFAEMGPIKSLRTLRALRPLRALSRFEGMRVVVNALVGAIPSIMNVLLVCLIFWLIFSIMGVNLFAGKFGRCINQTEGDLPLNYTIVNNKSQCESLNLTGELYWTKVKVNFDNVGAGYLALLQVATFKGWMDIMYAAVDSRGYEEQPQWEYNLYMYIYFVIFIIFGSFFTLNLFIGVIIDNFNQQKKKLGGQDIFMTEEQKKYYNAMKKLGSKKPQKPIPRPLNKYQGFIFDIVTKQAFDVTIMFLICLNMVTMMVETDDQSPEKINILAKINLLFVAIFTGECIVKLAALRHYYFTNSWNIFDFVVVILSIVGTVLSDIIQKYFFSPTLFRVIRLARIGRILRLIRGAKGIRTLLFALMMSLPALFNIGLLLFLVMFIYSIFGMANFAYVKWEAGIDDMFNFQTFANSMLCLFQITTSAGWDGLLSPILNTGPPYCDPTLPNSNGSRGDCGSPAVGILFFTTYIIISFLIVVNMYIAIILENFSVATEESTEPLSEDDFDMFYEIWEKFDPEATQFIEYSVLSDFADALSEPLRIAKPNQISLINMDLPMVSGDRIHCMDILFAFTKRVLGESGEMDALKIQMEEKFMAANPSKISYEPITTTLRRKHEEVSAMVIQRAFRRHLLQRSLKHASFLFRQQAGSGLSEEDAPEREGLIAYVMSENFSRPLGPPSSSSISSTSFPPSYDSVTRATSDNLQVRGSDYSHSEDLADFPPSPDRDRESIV

For `COc1ccccc1Nc1nc(C)c(C(=O)N[C@H]2CCC[C@@H]2OCc2ccccc2)s1` [Compound 68, 2-(2-methoxy-phenylamino)-4-methyl-thiazole-5-carboxylic acid (1S,2S)-2-(benzyloxycyclopent-1-yl) amide], in assay [1], the “Block at 10 μM in %: Isus (Kv1.5 + additional channels)” value is on record as 55.2 ± 6.4%. The “QT and QTc intervals in the mouse ECG” value in assay [2] (60 min dosing intervals) is on record as “significant, dose-dependent but late onset prolongation”. In assay [2], the Heart rate entry was “minor and not significant decrease”; the Locomotor activity result is “reproducible rise after each of the subsequent injections”; the “PQ and QRS in the mouse ECG” value is given as “did not show dose-dependent changes”. Further, the “Block at 10 μM in %: INa (SCN5a)” value in assay [3] came out at 0 ± 0.5%.
